Source: ChEMBL document CHEMBL1201862, “PubChem BioAssay data set” (2004)
Activity calls are given as the source filed them.

Tests used:
[1] = target: 5-hydroxytryptamine receptor 1A (Homo sapiens, UniProt P08908); assay type: functional
[2] = target: T1, Protein skinhead-1 (Caenorhabditis elegans, UniProt P34707); assay type: functional
T1 sequence (P34707 whole entry): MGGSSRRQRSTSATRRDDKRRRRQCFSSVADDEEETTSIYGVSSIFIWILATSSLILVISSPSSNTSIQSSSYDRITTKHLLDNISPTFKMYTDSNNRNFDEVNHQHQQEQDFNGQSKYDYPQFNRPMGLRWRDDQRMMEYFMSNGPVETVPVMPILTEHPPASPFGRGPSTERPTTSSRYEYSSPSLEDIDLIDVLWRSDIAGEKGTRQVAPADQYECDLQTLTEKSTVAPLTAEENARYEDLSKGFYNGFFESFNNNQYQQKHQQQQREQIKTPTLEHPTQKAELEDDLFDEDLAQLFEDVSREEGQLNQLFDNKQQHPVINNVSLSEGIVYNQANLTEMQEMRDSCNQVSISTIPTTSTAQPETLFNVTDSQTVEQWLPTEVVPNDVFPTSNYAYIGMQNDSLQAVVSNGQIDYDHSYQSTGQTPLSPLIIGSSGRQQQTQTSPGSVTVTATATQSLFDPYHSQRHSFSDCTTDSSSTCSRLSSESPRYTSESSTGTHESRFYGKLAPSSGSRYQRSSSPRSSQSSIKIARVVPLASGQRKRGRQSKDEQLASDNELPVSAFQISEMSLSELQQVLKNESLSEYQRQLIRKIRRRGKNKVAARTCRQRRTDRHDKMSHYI

[3] = target: Neuropeptide Y receptor type 2 (Homo sapiens, UniProt P49146); assay type: functional, cell-based;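 also: HEK293 cells expressing the receptor and a CNG channel; stimulus was NPY near EC95 followed by isoproterenol to raise cAMP; antagonist potency measured as restoring cAMP signal that NPY suppresses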
[4] = target: Neuropeptide Y receptor type 1 (Homo sapiens, UniProt P25929); assay type: functional;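 also: HEK293 cells with a CNG channel challenged with NPY then isoproterenol; potency as antagonist that reverses NPY suppression of cAMP signal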
[5] = tested on: INS1; experiment: INS-1E survival protection against cytokine death – cell-based, luminescence, retest, dose response (AID 449756); assay type: functional; conditions: Rattus norvegicus;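 also: cell death triggered by IL-1 beta plus TNF-alpha plus IFN-gamma mixture; protective hits raise ATP signal compared with cytokine alone wells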
[6] = Luminescent dose response cell-based high throughput screening assay for inhibitors of the Janus kinase 2 mutant JAK2V617F. [Related pubchem assays: 1446 (Primary screen.), 1521 (Confirmation assay.), 1486 (Counter screen.)]; assay type: functional
[7] = target: Diphosphomevalonate decarboxylase (Streptococcus pneumoniae serotype 2 (strain D39 / NCTC 7466), UniProt Q9FD53); experiment: diphosphomevalonate decarboxylase inhibitor confirmation – biochemical, cuvette format, coupled NADH fluorescence (AID 1028); assay type: functional
[8] = tested on: Vero; experiment: mammalian cell viability reduction – secondary assay, cytotoxicity control for West Nile virus antiviral project, dose response (AID 1650); assay type: functional; conditions: Chlorocebus sabaeus
[9] = HEK-293T viability loss after treatment – luminescence, T-cell screen hits, cytotoxicity control for TCR NF-kB inhibitor project, dose response (AID 489026); assay type: functional, cell-based;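 also: cells exposed to compound about 14 hours before the viability readout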
[10] = target: Estrogen receptor (Homo sapiens, UniProt P03372);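 also: potency for inhibiting coactivator peptide recruitment to the receptor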
[11] = target: T2, Estrogen receptor beta (Homo sapiens, UniProt Q92731); experiment: blockers of SRC-3 recruitment to ERβ – biochemical, ELISA, streptavidin-HRP readout, orthogonal assay, confirmation (AID 1060)
[12] = target: T2, Estrogen receptor beta

T2 sequence (Q92731 whole entry): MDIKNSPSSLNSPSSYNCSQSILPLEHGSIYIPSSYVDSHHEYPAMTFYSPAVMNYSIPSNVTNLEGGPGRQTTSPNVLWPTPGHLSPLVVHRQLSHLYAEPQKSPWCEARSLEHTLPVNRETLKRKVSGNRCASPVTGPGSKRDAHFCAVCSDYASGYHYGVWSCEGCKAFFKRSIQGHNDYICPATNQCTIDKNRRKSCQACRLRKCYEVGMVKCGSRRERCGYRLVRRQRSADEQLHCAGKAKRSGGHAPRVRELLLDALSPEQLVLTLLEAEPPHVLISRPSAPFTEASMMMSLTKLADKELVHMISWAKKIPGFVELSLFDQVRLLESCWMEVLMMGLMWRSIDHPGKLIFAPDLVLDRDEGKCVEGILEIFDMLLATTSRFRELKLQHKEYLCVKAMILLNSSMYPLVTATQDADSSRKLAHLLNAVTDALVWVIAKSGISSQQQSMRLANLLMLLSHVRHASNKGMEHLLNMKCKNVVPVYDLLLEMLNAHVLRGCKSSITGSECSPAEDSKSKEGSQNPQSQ
Sequence of Estrogen receptor (P03372 whole entry): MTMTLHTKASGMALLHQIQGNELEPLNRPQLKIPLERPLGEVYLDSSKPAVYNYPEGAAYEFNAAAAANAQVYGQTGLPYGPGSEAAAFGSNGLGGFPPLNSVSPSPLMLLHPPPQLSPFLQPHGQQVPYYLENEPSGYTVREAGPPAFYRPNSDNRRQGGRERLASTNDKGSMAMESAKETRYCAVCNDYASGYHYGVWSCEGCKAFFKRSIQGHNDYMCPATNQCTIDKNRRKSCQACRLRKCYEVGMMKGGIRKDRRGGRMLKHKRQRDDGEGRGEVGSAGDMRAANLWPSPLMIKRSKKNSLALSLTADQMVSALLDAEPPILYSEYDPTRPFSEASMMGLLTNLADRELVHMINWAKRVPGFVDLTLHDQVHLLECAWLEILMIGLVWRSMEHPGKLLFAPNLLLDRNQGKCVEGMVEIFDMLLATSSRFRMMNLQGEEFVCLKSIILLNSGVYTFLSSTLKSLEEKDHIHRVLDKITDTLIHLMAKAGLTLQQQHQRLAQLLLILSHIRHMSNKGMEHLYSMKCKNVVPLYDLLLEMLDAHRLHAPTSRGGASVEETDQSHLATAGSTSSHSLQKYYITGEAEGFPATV
Sequence of Neuropeptide Y receptor type 2 (P49146 whole entry): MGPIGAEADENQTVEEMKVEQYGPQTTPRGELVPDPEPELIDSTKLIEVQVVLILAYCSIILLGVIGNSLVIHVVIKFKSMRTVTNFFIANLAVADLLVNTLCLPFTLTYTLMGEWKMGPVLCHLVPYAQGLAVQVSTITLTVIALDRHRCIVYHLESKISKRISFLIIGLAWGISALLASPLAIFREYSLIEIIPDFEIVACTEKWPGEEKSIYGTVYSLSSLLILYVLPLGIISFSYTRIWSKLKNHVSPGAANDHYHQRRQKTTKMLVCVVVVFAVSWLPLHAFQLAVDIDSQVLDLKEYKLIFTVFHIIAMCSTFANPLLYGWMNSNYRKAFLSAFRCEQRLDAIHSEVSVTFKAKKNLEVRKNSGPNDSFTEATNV
Sequence of 5-hydroxytryptamine receptor 1A (P08908 whole entry): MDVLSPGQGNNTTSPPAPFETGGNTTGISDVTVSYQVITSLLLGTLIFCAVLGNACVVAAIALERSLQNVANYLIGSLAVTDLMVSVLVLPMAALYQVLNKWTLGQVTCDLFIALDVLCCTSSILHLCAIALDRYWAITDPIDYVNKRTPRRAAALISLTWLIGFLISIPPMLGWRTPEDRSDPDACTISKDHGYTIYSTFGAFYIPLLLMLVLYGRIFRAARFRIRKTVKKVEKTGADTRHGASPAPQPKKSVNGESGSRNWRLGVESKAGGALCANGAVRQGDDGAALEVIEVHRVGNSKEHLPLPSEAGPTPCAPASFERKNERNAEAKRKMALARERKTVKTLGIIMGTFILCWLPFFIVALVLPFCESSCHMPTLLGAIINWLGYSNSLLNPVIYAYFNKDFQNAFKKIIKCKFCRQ
Sequence of Neuropeptide Y receptor type 1 (P25929 whole entry): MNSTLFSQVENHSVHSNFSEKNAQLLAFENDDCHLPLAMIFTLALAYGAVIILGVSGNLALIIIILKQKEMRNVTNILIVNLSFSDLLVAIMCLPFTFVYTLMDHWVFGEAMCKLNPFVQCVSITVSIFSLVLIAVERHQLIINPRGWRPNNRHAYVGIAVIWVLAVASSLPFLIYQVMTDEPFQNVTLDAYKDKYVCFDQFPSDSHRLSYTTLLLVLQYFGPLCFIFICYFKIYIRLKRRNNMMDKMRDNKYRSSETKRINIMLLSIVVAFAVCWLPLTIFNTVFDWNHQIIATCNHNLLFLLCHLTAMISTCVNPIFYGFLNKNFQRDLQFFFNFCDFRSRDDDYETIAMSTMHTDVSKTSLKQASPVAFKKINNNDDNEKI
Sequence of Diphosphomevalonate decarboxylase (Q9FD53 whole entry): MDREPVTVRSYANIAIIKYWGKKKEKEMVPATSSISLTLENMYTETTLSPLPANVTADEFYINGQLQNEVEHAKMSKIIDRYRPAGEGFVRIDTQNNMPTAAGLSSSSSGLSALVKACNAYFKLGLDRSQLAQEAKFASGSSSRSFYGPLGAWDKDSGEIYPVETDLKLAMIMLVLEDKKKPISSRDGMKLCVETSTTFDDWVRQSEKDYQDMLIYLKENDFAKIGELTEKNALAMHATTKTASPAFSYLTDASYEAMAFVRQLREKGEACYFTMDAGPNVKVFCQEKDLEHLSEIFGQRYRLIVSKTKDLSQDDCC

SMILES: CN(C)CCOC(=O)c1cn(Cc2ccccc2)c2ccccc12
- EC50 [1]: > 50 µM (not active)

SMILES: O=C(CSc1nc2ccccc2o1)c1ccc2c(c1)OCCO2
- IC50 [2]: > 100 µM (inactive)
- IC50 [3]: 18.3 µM (not active)
- IC50 [4]: 11.3 µM (not active)

SMILES: CCCOc1ccc(C(=O)C(CN2CCOCC2)c2ccccc2)cc1 (configuration not stated)
- AC50 [5]: > 60 µM (inactive)
- IC50 [6]: 0.909 µM (active)

SMILES: CCCNC(=O)c1ccc(-n2sc3ccccc3c2=O)cc1
- IC50 [7]: 7.48 µM (active)

SMILES: CCOc1ccc2c(c1)OC(c1ccc(OC)cc1)(C(F)(F)F)NC2=O (configuration not stated)
- CC50 [8]: 13.7 µM (active)
- IC50 [9]: > 80 µM (inactive)

SMILES: Cc1occc1C(=O)Nc1ccccc1NC(=O)c1ccoc1C
- IC50 [10]: > 50 µM (not active)
- IC50 [11]: 0.155 µM (not active)
- IC50 [12]: > 50 µM (not active)
